{"source": "patent US20090239936A1", "about": "“Prophylactic and Therapeutic Agent for Cancer” (priority 2006, published 2009)", "key": {"P-glycoprotein": {"tested_on": "P-glycoprotein", "assay": "P-glycoprotein expression level by western blotting after drug addition", "type": "cell-based, human", "description": "In […] HCT-15 cells (obtained from Developmental Therapeutics Program, National Cancer Institute, National Institutes of Health, Bethesda, Md., USA) and […] SW620 cells (obtained from Developmental Therapeutics Program, National Cancer Institute, National Institutes of Health, Bethesda, Md., USA), which expressed P-glycoprotein at a high level, screening of drugs that reduced the expression level of P-glycoprotein was performed by western blotting. […]\nInhibitory effects of MEK inhibitor U0126 on the expression level of P-glycoprotein in HCT-15 and SW620 cells prepared by the same procedure as described in PREPARATION EXAMPLE 1 in which endogenous P-glycoprotein was expressed and in the MCF-7/MDR and MDA-MB-231/MDR cells in which exogenous P-glycoprotein was expressed were monitored with passage of time in a manner similar to EXAMPLE 1. […]\nUsing MEK inhibitor PD098059 (purchased from Cell Signaling Technology; see English, J. et al. (1999) Exp. Cell Res. 253, 255), which has an action mechanism different from U0126, inhibitory effects of MEK inhibitor PD098059 on the expression level of P-glycoprotein in the HCT-15 and SW620 cells in which endogenous P-glycoprotein was expressed and in the MCF-7/MDR and MDA-MB-231/MDR cells in which exogenous P-glycoprotein was expressed were monitored with passage of time in a manner similar to EXAMPLE 1. […]"}, "MDR1 mRNA": {"tested_on": "MDR1 mRNA", "settings": "U0126 10 μM"}, "BCRP": {"tested_on": "BCRP", "settings": "U0126 10 μM; human colon cancer (HT-29, KM12), non-small-cell lung cancer (NCI-H460, A549) and ovarian cancer (OVACAR-5) cells; in 12 hours later (FIG. 5)", "method": "After incubation for 8 hours or 12 hours, each drug was added to the cells followed by further incubation. Thereafter, the BCRP expression level was assessed by western blotting using an anti-BCRP antibody (manufactured by Chemicon International Inc., trade name: BXP-21). The protein of 10 μg each was electrophoresed in each lane. The protein was quantified by Bradford assay (Bio-Rad protein assay dye reagent). More specifically, the incubated cells were recovered with a cell scraper and centrifuged (5,000 rpm×3 mins.) to pellet down. […] While vortexing every 5 minutes, the cell membrane and cytoplasmic fractions were solubilized on ice for 30 minutes in total. Using the supernatant after centrifugation (15,000 rpm×15 mins.) as a sample, the protein was quantified."}, "HCT-15 cells": {"tested_on": "HCT-15 cells", "assay": "cell growth inhibition test, HCT-15", "type": "cell-based", "settings": "Homo sapiens, 120 h, read-out: IC50 concentration (50% growth inhibitory concentration), 5 days", "method": "(§1) The cells were plated in 12-well plates (manufactured by IWAKI GLASS Co. […] Subsequently, the drug diluted in the medium to different concentrations was added in a volume of 1 ml per well. The plates were placed in a 5% carbon dioxide gas incubator and incubation was performed at 37° C. for 5 days. Five days after, the cells were rinsed with phosphate buffer and detached with 0.5 ml of trypsin-EDTA. The cells were then suspended in 1 ml of the medium. The cell suspension in each well was added into a beaker containing 9 ml of […] diluent (TOA Medical Electronics Co., Ltd.), and the number of cells was counted with a Sysmex CDA-500 automated cell counter (TOA Medical Electronics Co., Ltd.)."}, "SW620-14 cells": {"tested_on": "SW620-14 cells", "assay": "cell growth inhibition test, SW620-14", "type": "cell-based", "settings": "Homo sapiens, 120 h, read-out: IC50 concentration (50% growth inhibitory concentration), 5 days", "method": "as §1"}, "MCF-7/MDR cells": {"tested_on": "MCF-7/MDR cells", "assay": "cell growth inhibition test, MCF-7/MDR", "type": "cell-based", "settings": "Homo sapiens, MCF7, 120 h, read-out: IC50 concentration (50% growth inhibitory concentration), 5 days", "method": "as §1"}, "MDA-MB-231/MDR cells": {"tested_on": "MDA-MB-231/MDR cells", "assay": "cell growth inhibition test, MDA-MB-231/MDR", "type": "cell-based", "settings": "Homo sapiens, 120 h, read-out: IC50 concentration (50% growth inhibitory concentration), 5 days", "method": "as §1"}}, "data": [{"smiles": "O=c1cc(N2CCOCC2)oc2c(-c3ccccc3)cccc12", "note": "[LY294002, 2-(4-morpholinyl)-8-phenyl-1(4H)-benzopyran-4-one]", "values": [{"measurement": "P-glycoprotein expression level", "setting": "P-glycoprotein; HCT-15 cells and SW620 cells, endogenous P-glycoprotein, western blotting (FIG. 1)", "value": "not down-regulated"}]}, {"smiles": "N#CC(=C(N)Sc1ccccc1N)C(C#N)=C(N)Sc1ccccc1N", "note": "[U0126, 1,4-diamino-2,3-dicyano-1,4-bis[2-aminophenylthio]butadiene]", "values": [{"measurement": "expression level of P-glycoprotein", "setting": "P-glycoprotein; U0126 10 μM, MCF-7/MDR and MDA-MB-231/MDR cells (exogenous P-glycoprotein), in 8 to 12 hours (FIG. 2)", "value": "≤ 10 % of control"}, {"measurement": "expression level of MDR1 mRNA", "setting": "MDR1 mRNA", "value": "Any change was not observed"}, {"measurement": "expression level of BCRP", "setting": "BCRP", "value": "reduced"}]}, {"smiles": "CC(=O)O[C@H]1C(=O)[C@@]2(C)[C@H]([C@H](OC(=O)c3ccccc3)[C@]3(O)C[C@H](OC(=O)[C@H](O)[C@@H](NC(=O)c4ccccc4)c4ccccc4)C(C)=C1C3(C)C)[C@]1(OC(C)=O)CO[C@@H]1C[C@@H]2O", "note": "[paclitaxel]", "values": [{"measurement": "IC50", "setting": "HCT-15 cells", "value": 100, "unit": "nM"}, {"measurement": "IC50", "setting": "SW620-14 cells", "value": 5, "unit": "nM"}, {"measurement": "IC50", "setting": "MCF-7/MDR cells", "value": 4, "unit": "nM"}, {"measurement": "IC50", "setting": "MDA-MB-231/MDR cells", "value": 800, "unit": "nM"}]}]}
